Experimental data taken from ChEMBL document CHEMBL1955749, “Synthesis and anti-influenza activity of aminoalkyl rupestonates” (Bioorg Med Chem Lett, 2012).
The source made the active and inactive calls. The rule behind the calls is not given here.

How the values were obtained:
Influenza A virus [1] = assay: Antiinfluenza activity against influenza A virus H3N2 infected in MDCK cells assessed as inhibition of virus-induced cytopathic effect after 36 hrs; assay type: functional, organism-based
Influenza A virus [2] = assay: Antiinfluenza activity against influenza A virus H1N1 infected in MDCK cells assessed as inhibition of virus-induced cytopathic effect after 36 hrs; assay type: functional, organism-based
Influenza B virus [3] = assay: Antiinfluenza activity against influenza B virus infected in MDCK cells assessed as inhibition of virus-induced cytopathic effect after 36 hrs; assay type: functional, organism-based
[4] = Cytotoxicity against MDCK cells; assay type: cell-based, Canis lupus familiaris; settings: dog, read-out: TC50 (the source's name)
[5] = Selectivity index, ratio of TC50 for MDCK cells to IC50 for influenza A virus H3N2; assay type: toxicity, cell-based; settings: dog, read-out: Selectivity Index
[6] = Selectivity index, ratio of TC50 for MDCK cells to IC50 for influenza A virus H1N1; assay type: toxicity, cell-based; settings: dog, read-out: Selectivity Index
[7] = Selectivity index, ratio of TC50 for MDCK cells to IC50 for influenza B virus; assay type: toxicity, cell-based; settings: dog, read-out: Selectivity Index
Influenza A virus [8] = assay: Antiinfluenza activity against influenza A virus H3N2 infected in MDCK cells assessed as inhibition of virus-induced cytopathic effect at 0.15 to 1.37 ug/ml after 36 hrs; assay type: functional, organism-based
Influenza A virus [9] = assay: Antiinfluenza activity against influenza A virus H3N2; assay type: functional, organism-based
Influenza A virus [10] = assay: Antiinfluenza activity against influenza A virus H1N1; assay type: functional, organism-based
Influenza B virus [11] = assay: Antiinfluenza activity against influenza B virus; assay type: functional, organism-based
Influenza A virus [12] = assay: Antiinfluenza activity against influenza A virus; assay type: functional, organism-based

Row | Compound | IC50 (Influenza A virus [1]) | IC50 (Influenza A virus [2]) | IC50 (Influenza B virus [3]) | CC50 [4] | selectivity ratio [5] | selectivity ratio [6] | selectivity ratio [7] | inhibition (Influenza A virus [8]) | IC50 (Influenza A virus [9]) | IC50 (Influenza A virus [10]) | IC50 (Influenza B virus [11]) | IC50 (Influenza A virus [12])
1 | C=C(C(=O)OCCCCCCn1cncn1)[C@@H]1CC[C@H](C)[C@@H]2CC(=O)C(C)=C2C1 | 14.9 µM | 48.2 µM | > 31 µM | 120 µM | 8 | 2.48 |  |  |  |  |  | 
2 | C=C(C(=O)OCCN1CCN(C)CC1)[C@@H]1CC[C@H](C)[C@@H]2CC(=O)C(C)=C2C1 | > 33 µM | 129 µM | > 33 µM | 231 µM |  | 1.8 |  |  |  |  |  | 
3 | C=C(C(=O)OCCCCN1CCN(c2ccccc2)CC1)[C@@H]1CC[C@H](C)[C@@H]2CC(=O)C(C)=C2C1 | > 79.8 µM | 79.8 µM | > 79.8 µM | 415 µM |  | 5.2 |  |  |  |  |  | 
4 | NC(=O)c1ncn([C@@H]2O[C@H](CO)[C@@H](O)[C@H]2O)n1 [RIBAVIRIN] | 3.9 µM | 1.9 µM | 14.7 µM | 1280 µM | 329 | 666 | 86.9 |  |  |  |  | 
5 | C=C(C(=O)OCCCCCCCCBr)[C@@H]1CC[C@H](C)[C@@H]2CC(=O)C(C)=C2C1 | 14.1 µM | 12.4 µM | > 28.2 µM | 146 µM | 10.4 | 11.8 |  |  |  |  |  | 
6 | C=C(C(=O)OCCCCCCCCCCn1cncn1)[C@@H]1CC[C@H](C)[C@@H]2CC(=O)C(C)=C2C1 | 0.97 µM | 0.42 µM | 11.3 µM | 27.1 µM | 28.1 | 65 | 2.4 | Active |  |  |  | 
7 | C=C(C(=O)OCCCCCCCCN1CCN(c2ccccc2)CC1)[C@@H]1CC[C@H](C)[C@@H]2CC(=O)C(C)=C2C1 | > 160 µM | 92.6 µM | > 160 µM | 333 µM |  | 3.6 |  |  |  |  |  | 
8 | C=C(C(=O)OCCCCCn1cncn1)[C@@H]1CC[C@H](C)[C@@H]2CC(=O)C(C)=C2C1 | 17.3 µM | 7.4 µM | 17.3 µM | 672 µM | 38.9 | 90.8 | 38.9 |  |  |  |  | 
9 | C=C(C(=O)OCCCl)[C@@H]1CC[C@H](C)[C@@H]2CC(=O)C(C)=C2C1 |  |  |  |  |  |  |  |  | 17.2 µM | 27.8 µM | 358 µM | 
10 | C=C(C(=O)OCCCCCCCCn1cncn1)[C@@H]1CC[C@H](C)[C@@H]2CC(=O)C(C)=C2C1 | 5.2 µM | 7.2 µM | 3.2 µM | 202 µM | 38.8 | 28 | 62.9 |  |  |  |  | 
11 | C=C(C(=O)O)[C@@H]1CC[C@H](C)[C@@H]2CC(=O)C(C)=C2C1c1ccc(C(C)(C)C)cc1 (stereo partly specified) |  |  |  |  |  |  |  |  |  |  |  | 0.5 µM
12 | C=C(C(=O)OCCCN1CCN(C)CC1)[C@@H]1CC[C@H](C)[C@@H]2CC(=O)C(C)=C2C1 | > 95.5 µM | > 95.5 µM | > 95.5 µM | 667 µM |  |  |  |  |  |  |  | 
13 | C=C(C(=O)OCCCCCCCCCCN1CCN(C)CC1)[C@@H]1CC[C@H](C)[C@@H]2CC(=O)C(C)=C2C1 | 5.2 µM | 3.7 µM | > 25.4 µM | 177 µM | 34 | 47.6 |  | Active |  |  |  | 
14 | C=C(C(=O)OCCCCBr)[C@@H]1CC[C@H](C)[C@@H]2CC(=O)C(C)=C2C1 | 75.2 µM | 75.2 µM | 67.2 µM | 420 µM | 5.6 | 5.6 | 6.2 |  |  |  |  | 
15 | C=C(C(=O)OCCCCCCN1CCN(c2ccccc2)CC1)[C@@H]1CC[C@H](C)[C@@H]2CC(=O)C(C)=C2C1 | > 56.5 µM | > 56.5 µM | > 56.5 µM | 394 µM |  |  |  |  |  |  |  | 
16 | CCOC(=O)C1=C[C@@H](OC(CC)CC)[C@H](NC(C)=O)[C@@H](N)C1 [OSELTAMIVIR PHOSPHATE] | 1.1 µM | 15.5 µM | > 500 µM | 1260 µM | 1140 | 81.3 |  |  |  |  |  | 
17 | C=C(C(=O)OCCCn1cncn1)[C@@H]1CC[C@H](C)[C@@H]2CC(=O)C(C)=C2C1 | 34.6 µM | 24 µM | > 34.6 µM | 311 µM | 9 | 13 |  |  |  |  |  | 

Row | Compound | IC50 (Influenza A virus [1]) | IC50 (Influenza A virus [2]) | IC50 (Influenza B virus [3]) | CC50 [4] | selectivity ratio [5] | selectivity ratio [6] | selectivity ratio [7] | inhibition (Influenza A virus [8]) | IC50 (Influenza A virus [9]) | IC50 (Influenza A virus [10]) | IC50 (Influenza B virus [11]) | IC50 (Influenza A virus [12])
18 | C=C(C(=O)OCCCCCN1CCN(C)CC1)[C@@H]1CC[C@H](C)[C@@H]2CC(=O)C(C)=C2C1 | 20.6 µM | 17.1 µM | 20.6 µM | 207 µM | 10.1 | 12.1 | 10.1 |  |  |  |  | 
19 | C=C(C(=O)OCCCCCCBr)[C@@H]1CC[C@H](C)[C@@H]2CC(=O)C(C)=C2C1 | 52.1 µM | 39.6 µM | 52.1 µM | 469 µM | 9 | 11.8 | 9 |  |  |  |  | 
20 | C=C(C(=O)OCCCCCCN1CCN(C)CC1)[C@@H]1CC[C@H](C)[C@@H]2CC(=O)C(C)=C2C1 | > 9.6 µM | > 9.6 µM | > 9.6 µM | 86 µM |  |  |  |  |  |  |  | 
21 | C=C(C(=O)OCCCBr)[C@@H]1CC[C@H](C)[C@@H]2CC(=O)C(C)=C2C1 | > 101 µM | > 101 µM | > 101 µM | 436 µM |  |  |  |  |  |  |  | 
22 | C=C(C(=O)OCCCCCN1CCN(c2ccccc2)CC1)[C@@H]1CC[C@H](C)[C@@H]2CC(=O)C(C)=C2C1 | > 25.7 µM | 20 µM | > 25.8 µM | 112 µM |  | 5.6 |  |  |  |  |  | 
23 | C=C(C(=O)OCCCCCCCCCCBr)[C@@H]1CC[C@H](C)[C@@H]2CC(=O)C(C)=C2C1 | 16.4 µM | 6.7 µM | > 26.5 µM | 138 µM | 8.4 | 20.5 |  | Active |  |  |  | 
24 | C=C(C(=O)OCCCCCCCCCCN1CCN(c2ccccc2)CC1)[C@@H]1CC[C@H](C)[C@@H]2CC(=O)C(C)=C2C1 | 94 µM | 2.4 µM | > 152 µM | 456 µM | 4.9 | 188 |  | Active |  |  |  | 
25 | C=C(C(=O)OCCCCn1cncn1)[C@@H]1CC[C@H](C)[C@@H]2CC(=O)C(C)=C2C1 | 42.9 µM | 57.6 µM | 77.5 µM | 386 µM | 9 | 6.7 | 5 |  |  |  |  | 
26 | C=C(C(=O)OCCCCN1CCN(C)CC1)[C@@H]1CC[C@H](C)[C@@H]2CC(=O)C(C)=C2C1 | 71.5 µM | 10.3 µM | > 92.1 µM | 644 µM | 9 | 62.8 |  |  |  |  |  | 
27 | C=C(C(=O)OCCn1cncn1)[C@@H]1CC[C@H](C)[C@@H]2CC(=O)C(C)=C2C1 | 74.9 µM | 83.8 µM | > 8 µM | 224 µM | 3 | 2.68 |  |  |  |  |  | 
28 | C=C(C(=O)OCCCCCBr)[C@@H]1CC[C@H](C)[C@@H]2CC(=O)C(C)=C2C1 | 19.3 µM | 19.3 µM | > 31.2 µM | 54 µM | 2.8 | 2.8 |  |  |  |  |  | 
29 | C=C(C(=O)OCCBr)[C@@H]1CC[C@H](C)[C@@H]2CC(=O)C(C)=C2C1 | > 314 µM | > 314 µM | > 314 µM | 1360 µM |  |  |  |  |  |  |  | 
30 | C=C(C(=O)OCCCN1CCN(c2ccccc2)CC1)[C@@H]1CC[C@H](C)[C@@H]2CC(=O)C(C)=C2C1 | 57.1 µM | 63.9 µM | > 11.2 µM | 171 µM | 3 | 2.7 |  |  |  |  |  | 
31 | C=C(C(=O)OCCCCCCCCN1CCN(C)CC1)[C@@H]1CC[C@H](C)[C@@H]2CC(=O)C(C)=C2C1 | > 26.9 µM | > 26.9 µM | > 26.9 µM | 188 µM |  |  |  |  |  |  |  | 
32 | C=C(C(=O)OCCN1CCN(c2ccccc2)CC1)[C@@H]1CC[C@H](C)[C@@H]2CC(=O)C(C)=C2C1 | 49.4 µM | 49.4 µM | 49.4 µM | 445 µM | 9 | 9 | 9 |  |  |  |  | 
33 | C=C(C(=O)O)[C@@H]1CC[C@H](C)[C@@H]2CC(=O)C(C)=C2C1 [PECHUELOIC ACID] | 25.8 µM | > 1340 µM | > 4030 µM | 4650 µM | 181 |  |  |  |  |  |  | 
